Measured values published in publication PMC8237258 (Journal of Medicinal Chemistry, 2021).
“And” between values parts separate entries of the source, which are not always exact repeats. Equal values may be shown once. Where a SMILES comes first, the peptide text is derived from it. Bridges are numbered along the chain shown (N, C = ends). [ ]: non-standard residue; d: D form.

Assays:
[1] = molecular target: guanylate cyclase-C (human (endogenous in T84)) (UniProt P25092)
GC-C receptor = GC-C receptor (Homo sapiens, UniProt P25092); experiment: cell-based
Sequence of GC-C receptor (P25092 24-1073 limits assumed): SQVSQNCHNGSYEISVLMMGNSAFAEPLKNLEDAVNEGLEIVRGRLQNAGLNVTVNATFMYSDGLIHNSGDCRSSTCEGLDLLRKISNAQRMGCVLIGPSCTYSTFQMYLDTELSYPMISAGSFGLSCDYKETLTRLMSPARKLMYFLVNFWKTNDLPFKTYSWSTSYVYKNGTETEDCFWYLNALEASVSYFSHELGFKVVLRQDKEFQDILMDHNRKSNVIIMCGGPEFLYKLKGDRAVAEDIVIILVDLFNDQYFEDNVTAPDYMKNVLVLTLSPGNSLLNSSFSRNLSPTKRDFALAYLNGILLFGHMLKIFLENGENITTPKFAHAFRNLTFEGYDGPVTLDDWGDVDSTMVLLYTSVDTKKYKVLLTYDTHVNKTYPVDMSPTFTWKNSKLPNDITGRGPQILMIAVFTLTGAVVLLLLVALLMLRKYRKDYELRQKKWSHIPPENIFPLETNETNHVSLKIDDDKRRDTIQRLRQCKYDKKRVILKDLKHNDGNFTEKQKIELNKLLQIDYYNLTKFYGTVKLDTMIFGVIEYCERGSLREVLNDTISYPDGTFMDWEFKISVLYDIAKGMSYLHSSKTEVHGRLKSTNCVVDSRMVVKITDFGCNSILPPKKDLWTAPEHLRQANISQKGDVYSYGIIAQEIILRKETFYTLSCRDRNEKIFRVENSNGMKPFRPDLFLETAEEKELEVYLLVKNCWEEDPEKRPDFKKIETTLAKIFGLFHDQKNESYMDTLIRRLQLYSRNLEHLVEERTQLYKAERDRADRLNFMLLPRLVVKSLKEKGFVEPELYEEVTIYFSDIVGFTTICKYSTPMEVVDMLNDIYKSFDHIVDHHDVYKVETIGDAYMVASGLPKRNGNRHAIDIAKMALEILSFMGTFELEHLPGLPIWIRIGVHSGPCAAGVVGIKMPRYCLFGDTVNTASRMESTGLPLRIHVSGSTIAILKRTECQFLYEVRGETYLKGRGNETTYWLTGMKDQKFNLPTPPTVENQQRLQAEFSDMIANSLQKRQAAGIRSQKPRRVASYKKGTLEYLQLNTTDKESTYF

in vitro [2] = conditions: pig, simulated gi fluid, pH 6.8
in vitro [3] = conditions: simulated gi fluid, pH 1.3
[4] = in vivo; cited from earlier work

Sequence of guanylate cyclase-C (human (endogenous in T84)) (P25092 24-1073): as the sequence (P25092 24-1073 limits assumed) above

Compound | EC50 of cGMP accumulation in human T84 cells (cGMP HTRF assay kit) [1] | EC50 (GC-C receptor) | half-life (in vitro [2]) | half-life (in vitro [3]) | other results
[D-Val^14]-Linaclotide (peptide) | 104 nM | – | – | – | –
[Sec^1,6; D-Tyr^14]-Linaclotide (peptide) | 5 nM | – | – | – | –
C[C@@H]1NC(=O)[C@@H]2CCCN2C(=O)[C@H](CC(N)=O)NC(=O)[C@@H]2CSSC[C@@H]3NC(=O)[C@H](Cc4ccc(O)cc4)NC(=O)[C@@H]4CSSC[C@H](NC(=O)[C@H](Cc5ccc(O)cc5)NC(=O)[C@H](CCC(=O)O)NC(=O)[C@H](CSSC[C@H](NC1=O)C(=O)N[C@@H]([C@@H](C)O)C(=O)NCC(=O)N4)NC3=O)C(=O)N2 [[cyclic]-Linaclotide] (cyclo(ACTGCYCCEYCCNP); disulfide 2-8, 5-11, 7-12) | – | 2990 ± 929 nM | > 8 h | > 8 h | EC50/EC50 linaclotide fold (GC-C receptor): 808 fold and ~800 fold
C[C@@H]1NC(=O)[C@@H]2CCCN2C(=O)[C@H](CC(N)=O)NC(=O)[C@@H]2CSSC[C@H](N)C(=O)N[C@H]3CSSC[C@H](NC1=O)C(=O)N[C@@H]([C@@H](C)O)C(=O)NCC(=O)N[C@H](C(=O)N[C@@H](Cc1ccc(O)cc1)C(N)=O)CSSC[C@H](NC(=O)[C@H](Cc1ccc(O)cc1)NC(=O)[C@H](CCC(=O)O)NC3=O)C(=O)N2 [Linaclotide-NH2] (H-CCEYCCNPACTGCY-NH2; disulfide 1-6, 2-10, 5-13) | – | 7.2 ± 2.1 nM | > 8 h | > 8 h | –
[cyclic]-Linaclotide (peptide) | 2990 nM | – | – | – | –
Linaclotide (peptide) | 3.7 nM | – | – | – | –
Linaclotide-NH2 (peptide) | 7.2 nM | – | – | – | –
[desTyr^14]-Linaclotide-NH2 (peptide) | 33.7 nM | – | – | – | –
CC(C)[C@@H](NC(=O)[C@@H]1CSSC[C@@H]2NC(=O)[C@H](Cc3ccc(O)cc3)NC(=O)[C@H](CCC(=O)O)NC(=O)[C@@H]3CSSC[C@H](NC(=O)[C@H](C)NC(=O)[C@@H]4CCCN4C(=O)[C@H](CC(N)=O)NC(=O)[C@H](CSSC[C@H](N)C(=O)N3)NC2=O)C(=O)N[C@@H]([C@@H](C)O)C(=O)NCC(=O)N1)C(N)=O [[D-Val^14]-Linaclotide] (H-CCEYCCNPACTGC[dV]-NH2; disulfide 1-6, 2-10, 5-13) | – | 104 ± 21.6 nM | > 8 h | > 8 h | EC50/EC50 linaclotide fold (GC-C receptor): 28 fold; fold less potent than [D-Tyr^14]-Linaclotide (GC-C receptor): 6 fold
C[C@@H]1NC(=O)[C@@H]2CCCN2C(=O)[C@H](CC(N)=O)NC(=O)[C@@H]2CSSC[C@H](N)C(=O)N[C@H]3CSSC[C@H](NC1=O)C(=O)N[C@@H]([C@@H](C)O)C(=O)NCC(=O)N[C@H](C(N)=O)CSSC[C@H](NC(=O)[C@H](Cc1ccc(O)cc1)NC(=O)[C@H](CCC(=O)O)NC3=O)C(=O)N2 [[desTyr^14]-Linaclotide-NH2] (H-CCEYCCNPACTGC-NH2; disulfide 1-6, 2-10, 5-13) | – | 33.7 ± 5.7 nM | > 8 h | > 8 h | –
[D-Tyr^14]-Linaclotide (peptide) | 16.5 nM | – | – | – | –
C[C@@H]1NC(=O)[C@@H]2CCCN2C(=O)[C@H](CC(N)=O)NC(=O)[C@@H]2CSSC[C@H](N)C(=O)N[C@H]3CSSC[C@H](NC1=O)C(=O)N[C@@H]([C@@H](C)O)C(=O)NCC(=O)N[C@H](C(=O)N[C@@H](Cc1ccc(O)cc1)C(=O)O)CSSC[C@H](NC(=O)[C@H](Cc1ccc(O)cc1)NC(=O)[C@H](CCC(=O)O)NC3=O)C(=O)N2 [Linaclotide, reference compound] (H-CCEYCCNPACTGCY-OH; disulfide 1-6, 2-10, 5-13 (inferred)) | – | 3.7 ± 0.5 nM | 0.8 h | > 8 h | absorption into the systemic circulation [4]: insignificant; amount excreted in the feces [4]: 3–5%
C[C@@H]1NC(=O)[C@@H]2CCCN2C(=O)[C@H](CC(N)=O)NC(=O)[C@@H]2CSSC[C@H](N)C(=O)N[C@H]3CSSC[C@H](NC1=O)C(=O)N[C@@H]([C@@H](C)O)C(=O)NCC(=O)N[C@H](C(=O)N[C@H](Cc1ccc(O)cc1)C(N)=O)CSSC[C@H](NC(=O)[C@H](Cc1ccc(O)cc1)NC(=O)[C@H](CCC(=O)O)NC3=O)C(=O)N2 [[D-Tyr^14]-Linaclotide] (H-CCEYCCNPACTGC[dY]-NH2; disulfide 1-6, 2-10, 5-13) | – | 16.5 ± 5.8 nM | > 8 h | > 8 h | EC50/EC50 linaclotide fold (GC-C receptor): 4.5 fold
